≈ marks a conversion by molar mass, not a printed value. Read-outs that look alike come from different tables or passages of the source.
How the values were obtained:
[1] = system: mouse L1210 leukemia cells; assay: Formation of L1210 leukemia cell colonies in soft agar (cytostatic activity); type: cell-based; conditions: Mus musculus, colonies > 60 μm, % of untreated control
Method: The cytostatic activity of the compounds according to the invention have been tested using mouse L1210 leukemia cells. Use was made for this by the formation of L1210 leukemia cell colonies in agar plates. This method is used to detect the effect of the test substances on the growth behavior of the cells over 1 hour or over several generations. In this connection, with a cell cycle time of 10-12 hours, about 14 consecutive generations are observed in a 7-day duration of the test. In this test, the substances having cytostatic activity according to the invention bring about a reduction, compared with an untreated control sample, in the number of colonies which is to be observed.
Procedure for Determining the Formation of L1210 Leukemia Cell Colonies in Soft Agar
500 leukemia cells per plate were incubated with various concentrations of the test substance at 37° C. for 1 hour. These cells were then washed twice with McCoy 5A medium, 0.3% agar was added, and finally the mixture was poured into Petri dishes. Controls were incubated only with fresh medium. In place of the incubation for one hour, in some cases various concentrations and test substances were mixed with the upper agar layer in order in this way to achieve continuous exposure of the cells throughout the incubation time. After the agar had solidified, the plates were incubated in an incubator at 37° C. for 7 days (5% by volume CO2, 95% relative atmospheric humidity). Thereafter the number of colonies with a diameter of more than 60 μm which had formed was counted. The results have been stated as the number of colonies in treated agar plates as a percentage of the untreated control. The dose-effect graph obtained in this way was used to determine the IC50 as a measure of the activity of the substance. The results for the compounds described here are compiled in Table 1 which follows, comparing with adriamycin.

[2] = light / sunlight; cited from earlier work

Compound	IC50 ([1]; L1210, 168 h, read-out: Continuous incubation IC50, continuous exposure, test substance mixed with upper agar layer, 7 days, 37° C.)	IC50 ([1]; L1210, read-out: 1 h incubation IC50, 1 hour incubation with test substance at 37° C., then washed, 7 days in agar)	photolytic decomposition on exposure to light [2]
COc1cccc2c1C(=O)c1c(O)c3c(c(O)c1C2=O)C[C@@](O)(C(=O)CO)C[C@@H]3O[C@H]1C[C@H](N)[C@H](O)[C@H](C)O1 [Adriamycin, 7-O-α-L-daunosaminyl-adriamycinone, reference compound]	0.02 µg/mL (≈ 0.0368 µM)	0.04 µg/mL (≈ 0.0736 µM)	photolytically decomposed on exposure to light
CC[C@@]1(O)C[C@H](O[C@H]2C[C@H](N(C)C)[C@H](O[C@H]3C[C@H](O)[C@H](O[C@H]4CCC(=O)[C@H](C)O4)[C@H](C)O3)[C@H](C)O2)c2c(cc3c(c2O)C(=O)c2c(O)cccc2C3=O)[C@H]1C(=O)OC [aclacinomycin A]			undergoes photolytic decomposition to a small extent
COc1cccc2c1C(=O)c1c(O)c3c(c(O)c1C2=O)C[C@@](O)(C(C)=O)C[C@@H]3O[C@H]1C[C@H](N)[C@H](O)[C@H](C)O1 [daunomycin, 7-O-α-L-daunosaminyl-daunomycinone]			photolytically decomposed on exposure to light
